Patent US11352365B2, “Biased potent opioid-like agonists as improved medications to treat chronic and acute pain and methods of using the same” (THE UNITED STATES OF AMERICA, AS REPRESENTED BY THE …, priority 2018, dated 2022)
Read-outs that look alike come from different tables or passages of the source.

Key:
MOR [1] = target: T1, MOR (Homo sapiens, UniProt P35372); test: cell-based; type: cell-based; parameters: host or cells: U2OS-β-arrestin2-EFC-hMOR
Experimental: The PathHunter β-arrestin assay. The assay was performed according to the manufacturer's protocol (DiscoveRx) and as described previously. Briefly, 5000 U2OS-β-arrestin2-EFC-hMOR cells were plated in 384-well white plates with Opti-MEM media (Invitrogen) containing 1% FBS±pertussis toxin (100 ng/ml) overnight. The next day, cells were treated with compounds for 90 min at 37° C., followed by a 1-hour incubation of detection reagent at room temperature. Luminescence values were determined by using a Synergy HT luminometer (BioTek).

MOR [2] = target: T1, MOR; test: cell-based; type: cell-based; parameters: expressed in transfected cells; host or cells: CHO-hMOR (membrane variant); SH-SY5Y-hMOR also named
Experimental: Four thousand cells per well were split into 384-well low-volume plate (VWR) with Opti-MEM (Invitrogen) supplemented with 1% FBS for 3 hours at 37° C. except SH-SY5Y-hMOR cells, which were plated for 1 hour at 37° C. Cells were then treated with drugs, […] forskolin for 30 min at room temperature.
Cells were then homogenized by a Dounce homogenizer 15 times in an ice-cold buffer [50 mM Hepes (pH 7.4)], followed by centrifugation at 500 g at 4° C. for 5 min. The supernatant was transferred to a 1.5-ml tube on ice, and the pellet was resuspended, homogenized, and centrifuged at 500 g at 4° C. for 5 min. Then, the supernatant was combined and spun at 20,000 g at 4° C. for 10 min. The membrane pellet was resuspended in an ice-cold buffer [50 mM Hepes (pH 7.4)] at concentrations of […]. Membranes were stored at −80° C. until use. For forskolin-stimulated cAMP accumulation assay, membranes were diluted in an assay buffer (50 mM Hepes, 10 mM MgCl2, 100 mM NaCl, 200 mM adenosine 5′-triphosphate, 10 mM GTP, 100 mM 3-isobutyl-1-methylxanthine, 20 mM forskolin, and 30 mM bovine serum albumin) and plated at […] of protein in each well. Membranes were treated with test compounds for 30 min at room temperature. The cAMP levels were determined as per the manufacturer's instructions (Cisbio cAMP HiRange assay).

MOR [3] = target: T1, MOR; type: cell-based; parameters: expressed in transfected cells; host or cells: CHO-hMOR (membrane variant); SH-SY5Y-hMOR also named
δ opioid receptor = target: T2, δ opioid receptor (Rattus norvegicus, UniProt P33533); test: Binding assay, 3H DADLE, rat tissue; conditions: triplicate, read-out: 3H DADLE δ Ki ± SEM
T2 construct: from tissue; host or cells: rat tissue (per the earlier reading)
T2 sequence (P33533 whole entry): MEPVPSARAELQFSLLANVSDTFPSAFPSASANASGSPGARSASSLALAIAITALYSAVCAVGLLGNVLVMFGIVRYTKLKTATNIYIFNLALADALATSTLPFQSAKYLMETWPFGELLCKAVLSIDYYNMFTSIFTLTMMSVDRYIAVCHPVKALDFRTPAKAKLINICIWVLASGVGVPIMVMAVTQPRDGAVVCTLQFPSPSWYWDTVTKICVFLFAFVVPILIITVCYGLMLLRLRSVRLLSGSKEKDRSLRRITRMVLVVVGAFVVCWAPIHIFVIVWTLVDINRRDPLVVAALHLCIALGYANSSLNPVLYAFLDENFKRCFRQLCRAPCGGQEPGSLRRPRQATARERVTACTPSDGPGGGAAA

κ opioid receptor = target: T3, κ opioid receptor (Rattus norvegicus, UniProt P34975); test: Binding assay, 3H U69,593, rat tissue; conditions: rat tissue, triplicate; read-out: 3H U69,593 κ Ki ± SEM
T3 construct: from tissue; host or cells: rat tissue (per the earlier reading)
T3 sequence (P34975 whole entry): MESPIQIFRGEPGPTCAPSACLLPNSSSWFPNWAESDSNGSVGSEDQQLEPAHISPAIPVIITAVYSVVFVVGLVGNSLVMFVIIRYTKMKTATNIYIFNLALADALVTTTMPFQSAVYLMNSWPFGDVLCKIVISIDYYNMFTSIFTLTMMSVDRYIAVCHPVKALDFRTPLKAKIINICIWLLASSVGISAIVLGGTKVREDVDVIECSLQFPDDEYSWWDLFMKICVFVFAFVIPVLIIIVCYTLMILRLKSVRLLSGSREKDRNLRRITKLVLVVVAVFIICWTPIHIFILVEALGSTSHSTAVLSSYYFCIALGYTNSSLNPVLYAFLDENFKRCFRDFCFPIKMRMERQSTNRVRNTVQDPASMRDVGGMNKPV

KOR [4] = target: T4, KOR (Homo sapiens, UniProt P41145); test: KOR cAMP agonist assay; type: cell-based; conditions: Table 1; read-out: KOR cAMP Agonist Potency ± SEM
T4 sequence (P41145 whole entry): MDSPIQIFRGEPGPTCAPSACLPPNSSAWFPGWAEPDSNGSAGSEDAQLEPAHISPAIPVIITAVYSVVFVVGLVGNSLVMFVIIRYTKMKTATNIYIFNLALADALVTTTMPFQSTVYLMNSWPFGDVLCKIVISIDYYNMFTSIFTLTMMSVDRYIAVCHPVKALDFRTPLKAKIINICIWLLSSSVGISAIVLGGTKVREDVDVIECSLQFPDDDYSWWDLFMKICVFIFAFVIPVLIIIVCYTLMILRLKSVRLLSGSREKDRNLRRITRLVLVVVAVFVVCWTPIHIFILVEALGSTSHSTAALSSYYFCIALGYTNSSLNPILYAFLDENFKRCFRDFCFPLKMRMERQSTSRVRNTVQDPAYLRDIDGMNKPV

KOR [5] = target: T4, KOR; test: KOR cAMP antagonist assay; type: cell-based
μ opioid receptor = μ opioid receptor (Rattus norvegicus, UniProt P33535); test: biochemical
Chain of μ opioid receptor (P33535 whole entry): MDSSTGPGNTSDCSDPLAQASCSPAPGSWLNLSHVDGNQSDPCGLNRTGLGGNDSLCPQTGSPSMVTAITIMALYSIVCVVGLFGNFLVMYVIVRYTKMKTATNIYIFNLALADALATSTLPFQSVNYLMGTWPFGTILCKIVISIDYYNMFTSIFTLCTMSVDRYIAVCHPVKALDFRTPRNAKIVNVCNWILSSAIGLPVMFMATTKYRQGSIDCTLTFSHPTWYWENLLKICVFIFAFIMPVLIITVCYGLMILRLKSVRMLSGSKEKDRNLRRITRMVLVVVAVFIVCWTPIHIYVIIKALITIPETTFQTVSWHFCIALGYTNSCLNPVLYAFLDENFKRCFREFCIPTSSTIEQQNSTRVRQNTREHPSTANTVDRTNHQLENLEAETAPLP

δ and μ opioid receptors = test: In vitro potency ratio at δ and μ opioid receptors; type: cell-based
Male Swiss-Webster mice = test: Respiration rate and arterial oxygen saturation (MouseOx pulse oximeter) in conscious mice; conditions: for respiratory depression in mice: equi-analgesic dose range of morphine
Experimental: Measurement of respiration rate and arterial oxygen saturation. […] They were housed (five in a cage) in a temperature-controlled environment with a 12-hour light-dark cycle and were supplied with food and water ad libitum. Mice were acclimated for a week in the central animal facility before behavioral testing. On the day of the experiment, mice were brought to the room and acclimated for 45-60 min in the observation boxes. Respiration and oxygen saturation (SpO2) were measured using MouseOx Plus Rat and Mouse Pulse Oximeter (Starr Life Sciences Corp, Oakmont, USA) in conscious, freely moving animals. […] Mice were then placed into observation boxes and recording was started 5 min later to eliminate any anesthesia effect.
Data are expressed as mean±standard error of the mean (S.E.M.), and p<0.05 was accepted as statistically significant. GraphPad Prism, version 7, was used for data analysis.

MOR [6] = target: T1, MOR; parameters: host or cells: U2OS-β-arrestin2-EFC-hMOR; conditions: cited from earlier work
[7] = Table 3, read-out: MOR Mediated B-arrestin Recruitment
[8] = Table 3, inhibition of forskolin-induced cAMP accumulation, read-out: MOR cAMP Agonist Potency ± SEM
[9] = Table 3, read-out: MOR cAMP Agonist (% Efficacy) (converted)
[10] = Table 2, read-out: MOR Mediated B-arrestin Recruitment
[11] = Table 2, inhibition of forskolin-induced cAMP accumulation, read-out: MOR cAMP Agonist Potency ± SEM
[12] = Table 2, read-out: MOR cAMP Agonist (% Efficacy) (converted)
[13] = read-out: MOR Mediated B-arrestin Recruitment (% Control, Emax DAMGO), Table 2
[14] = Table 4, read-out: MOR cAMP Agonist Potency ± SEM

T1 sequence (P35372 whole entry): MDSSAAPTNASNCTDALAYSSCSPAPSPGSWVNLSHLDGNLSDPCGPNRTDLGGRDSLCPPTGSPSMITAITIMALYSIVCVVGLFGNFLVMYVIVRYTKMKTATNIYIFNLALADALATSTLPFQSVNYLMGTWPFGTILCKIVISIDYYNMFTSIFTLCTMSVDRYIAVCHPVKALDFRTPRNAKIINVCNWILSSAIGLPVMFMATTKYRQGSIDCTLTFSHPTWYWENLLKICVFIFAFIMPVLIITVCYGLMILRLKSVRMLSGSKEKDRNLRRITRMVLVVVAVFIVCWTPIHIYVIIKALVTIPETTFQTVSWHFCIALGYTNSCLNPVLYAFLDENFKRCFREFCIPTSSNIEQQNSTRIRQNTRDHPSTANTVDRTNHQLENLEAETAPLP

C[C@@H]1[C@@H]2CCC[C@@]1(c1cccc(O)c1)CCN2CCc1ccccc1 (single isomer, unassigned) [(−)-48]
EC50 (MOR [1]; [7]): > 25000 nM | EC50 (MOR [2]; [8]): 12.1 ± 4.01 nM

C[C@@H]1C2CCC[C@@]1(c1cccc(O)c1)CCN2CCc1ccccc1 (single isomer, unassigned; (-)) [(−)-48]
Emax (MOR [2]; [9]): 71%

OC[C@@H]1CC[C@@]2(c3cccc(O)c3)CCN(CCc3ccccc3)[C@H]1C2 (stereo in doubt) [Compound 35, 3-(8-(Hydroxymethyl)-2-phenethyl-2-azabicyclo[3.3.1]nonan-5-yl)phenol]
EC50 (MOR [1]; [10]): > 25000 nM | EC50 (MOR [2]; [11]): 3.07 ± 2.2 nM | Emax (MOR [2]; [12]): 10.9% | Bias Factor (MOR [3]; Table 2): 1254

Oc1cccc([C@]23CCC[C@H]([C@H]2O)N(C[C@H]2C[C@@H]2c2ccccc2)CC3)c1 (stereo in doubt) [Compound 45, (1R,5S,9R)-5-(3-hydroxyphenyl)-2-((trans-2-phenylcyclopropyl)methyl)-2-azabicyclo[3.3.1]nonan-9-ol]
EC50 (MOR [1]): 22 nM | Emax (MOR [1]; read-out: MOR Mediated B-arrestin Recruitment (% Control, Emax DAMGO)): 22% | EC50 (MOR [2]): 0.12 nM | Emax (MOR [2]; read-out: MOR cAMP Agonist (% Efficacy)): 100% | Bias Factor (MOR [3]): 6.1

Oc1cccc(C23CCC[C@H]([C@H]2O)N(C/C=C/c2ccccc2)CC3)c1 (stereo in doubt) [Compound 52, (1R,5R,9S)-2-Cinnamyl-5-(3-hydroxyphenyl)-2-azabicyclo[3.3.1]nonan-9-ol]
Emax (MOR [2]; [9]): 100% | Bias Factor (MOR [3]; Table 3): 27.120

C[C@H]1[C@H]2CCC[C@@]1(c1cccc(O)c1)CCN2CCc1ccccc1 [(+)-48]
EC50 (MOR [1]; [7]): 7.72 ± 4.6 nM | Emax (MOR [1]; read-out: MOR Mediated B-arrestin Recruitment (% Control, Emax DAMGO), Table 3): 1.8% | EC50 (MOR [2]; [8]): 0.4 ± 0.12 nM | Emax (MOR [2]; [9]): 91% | Bias Factor (MOR [3]; Table 3): 6.7

C[C@@H]1[C@@H]2CCC[C@@]1(c1cccc(O)c1)CCN2CCc1ccccc1 [(−)-48]
Bias Factor (MOR [3]; Table 3): 2056

COC(=O)CC[C@H]1[C@@H]2CCC[C@@]1(c1cccc(O)c1)CCN2CCc1ccccc1 [Compound 8, Methyl 3-((1S,5R,9R)-5-(3-hydroxyphenyl)-2-phenethyl-2-azabicyclo[3.3.1]nonan-9-yl)propanoate]
Ki (δ opioid receptor): 118 ± 7.41 nM | Ki (κ opioid receptor): 23.2 ± 3.11 nM | EC50 (KOR [4]): > 10000 nM | KOR cAMP Antagonist Potency ± SEM (KOR [5]; Table 1): 2.0 ± 0.4 nM | activity at the kappa-receptor (in words) (KOR [5]; in vitro data): kappa-receptor antagonist | Ki (μ opioid receptor): 0.9 ± 0.04 nM | beta-arrestin recruitment (in words) (MOR [1]): do not | EC50 (MOR [1]; Table 1, read-out: MOR Mediated β-arrestin Recruitment): > 25000 nM | Emax (MOR [1]; read-out: MOR Mediated β-arrestin Recruitment (% Control, Emax DAMGO), Table 1): 0%

CCC[C@H]1[C@@H]2CCC[C@@]1(c1cccc(O)c1)CCN2CCc1ccccc1 [Compound 15, 3-(2-Phenethyl-9-propyl-2-azabicyclo[3.3.1]nonan-5-yl)phenol]
EC50 (MOR [2]; [11]): 0.95 ± 0.35 nM | Emax (MOR [2]; [12]): 63.3% | Bias Factor (MOR [3]; Table 2): 23,442

CCOC(=O)/C=C1\[C@H]2CCC[C@]1(c1cccc(O)c1)CCN2CCc1ccccc1 [Compound 26, Ethyl (Z)-2-(5-(3-hydroxyphenyl)-2-phenethyl-2-azabicyclo[3.3.1]nonan-9-ylidene)acetate]
Emax (MOR [1]; [13]): 22.2% | Emax (MOR [2]; [12]): 100% | Bias Factor (MOR [3]; Table 2): 179

CCOC(=O)C[C@@H]1[C@H]2CCC[C@]1(c1cccc(O)c1)CCN2CCc1ccccc1 [Compound 27, Ethyl 2-(5-(3-hydroxyphenyl)-2-phenethyl-2-azabicyclo[3.3.1]nonan-9-yl)acetate]
EC50 (MOR [1]; [10]): 175 ± 42.6 nM | Emax (MOR [1]; [13]): 1.5% | EC50 (MOR [2]; [11]): 14.6 ± 3.99 nM | Emax (MOR [2]; [12]): 90.4% | Bias Factor (MOR [3]; Table 2): 6.7

CCOC(=O)C[C@H]1[C@@H]2CCC[C@@]1(c1cccc(O)c1)CCN2CCc1ccccc1 [Compound 28, Ethyl 2-(5-(3-hydroxyphenyl)-2-phenethyl-2-azabicyclo[3.3.1]nonan-9-yl)acetate]
EC50 (MOR [1]; [10]): 58.8 ± 34.7 nM | Emax (MOR [1]; [13]): 2.18% | EC50 (MOR [2]; [11]): 3.97 ± 1.8 nM | Emax (MOR [2]; [12]): 78% | Bias Factor (MOR [3]; Table 2): 4.8

OC/C=C/[C@H]1[C@@H]2CCC[C@@]1(c1cccc(O)c1)CCN2CCc1ccccc1 [Compound 37, 3-((1S,5R,9R)-9-((E)-3-Hydroxyprop-1-en-1-yl)-2-phenethyl-2-azabicyclo[3.3.1]nonan-5-yl)phenol]
EC50 (MOR [2]; [11]): 2.31 ± 0.78 nM | Emax (MOR [2]; [12]): 33.5% | Bias Factor (MOR [3]; Table 2): 6794

Oc1cccc2c1O[C@H]1CN(CCc3ccccc3)[C@H]3CCC[C@@]21C3 [Compound 70, (3S,6aR,11aR)-2-Phenethyl-1,3,4,5,6,11a-hexahydro-2H-3,6a-methano-benzofuro[2,3-c]azocin-10-ol]
EC50 (MOR [1]; [7]): > 25000 nM | EC50 (MOR [2]; [8]): 0.5 ± 0.24 nM | Emax (MOR [2]; [9]): 32.8% | Bias Factor (MOR [3]; Table 3): 21454

O=C1CCC2C3Cc4ccc(O)c5c4[C@@]2(CCN3CCc2ccc(Cl)cc2)[C@H]1O5 (stereo partly drawn) [Compound 71, 3-(4-Chlorophenethyl)-9-hydroxy-2,3,4,4a,5,6-hexahydro-1H-4,12-methanobenzofuro[3,2-e]isoquinolin-7(7aH)-one]
δ/μ ratio (in vitro potency ratio at δ and μ opioid receptors) (δ and μ opioid receptors): approximately 1 | respiratory depression in mice (Male Swiss-Webster mice): did not depress respiration | effect on respiration rate (AUC 6 min to 45 min post injection) compared to saline (Male Swiss-Webster mice; mice, s.c., 0.01-0.1 mg/kg): no effect on respiration rate | EC50 (MOR [1]; Table 4, read-out: MOR Mediated B-arrestin Recruitment): 2.44 ± 0.45 nM | Emax (MOR [1]; read-out: MOR Mediated B-arrestin Recruitment (% Control, Emax DAMGO), Table 4): 44.8% | Emax (MOR [2]; Table 4, read-out: MOR cAMP Agonist (% Efficacy) (converted)): 98.8% | EC50 (MOR [2]; [14]): 0.05 ± 0.03 nM | Bias Factor (MOR [3]; Table 4): 0.82

O=C1CCC2C3Cc4ccc(O)c5c4[C@@]2(CCN3CCc2ccc(Br)cc2)[C@H]1O5 (stereo partly drawn) [Compound 72, 3-(4-Bromophenethyl)-9-hydroxy-2,3,4,4a,5,6-hexahydro-1H-4,12-methanobenzofuro[3,2-e]isoquinolin-7(7aH)-one]
δ/μ ratio (in vitro potency ratio at δ and μ opioid receptors) (δ and μ opioid receptors): approximately 5 | EC50 (MOR [2]; [14]): 0.15 ± 0.04 nM | agonist character at the mu-receptor (in words) (MOR [2]; in vitro data): potent μ agonist

C[C@@H](NC(=O)[C@@H](N)Cc1ccc(O)cc1)C(=O)NCC(=O)N(C)[C@@H](Cc1ccccc1)C(=O)NCCO [DAMGO, reference compound]
Bias Factor (MOR [3]): 1

CN1CC[C@]23c4c5ccc(O)c4O[C@H]2[C@@H](O)C=C[C@H]3[C@H]1C5 [Morphine, reference compound]
respiratory depression in mice (Male Swiss-Webster mice): did repress respiration

COc1ccsc1CNCC[C@@]1(c2ccccn2)CCOC2(CCCC2)C1 [TRV130]
beta-arrestin recruitment (in words), noted for known compound (MOR [6]): does recruit beta-arrestin slightly
